{"source": "patent US20130072383A1", "about": "“METHOD FOR ANTI-SPROUTING AND POSSIBLY FUNGICIDAL TREATMENT OF BULBS AND/OR TUBERS USING CLOVE OIL AND MINT OIL” (priority 2010, published 2013)", "tested_on": "Bintje, Nicola and Charlotte potatoes", "test": "Sprout-inhibiting treatment of stored potatoes over 6 months, sprout weights (Example 1)", "type": "in vivo", "settings": "used alone", "experimental": "The sprout-inhibiting treatments were carried out over a 6-month period.\nThe mint oil used contained about 70% L-carvone and the clove oil used contained about 90% eugenol.\nThe tested potatoes were Bintje, Nicola and Charlotte varieties.\nAn anti-sprouting composition A consisting of a mixture of clove oil (supplied by Charabot (Grasse)/ mint oil (supplied by Charabot (Grasse) at 2:1 v/v was prepared. The densities of mint and clove are respectively 0.94 and 1.04. This composition was applied to the potatoes using Electrofog Xeda 3000 equipment at an output temperature of 210° C., • at an initial dose of 90 grams of composition per tonne of potatoes, • at subsequent doses of 30 grams of composition per tonne of potatoes every three weeks.\nFor comparison, some potatoes were treated: • B: either with mint oil alone\nat an initial dose of 90 grams of mint oil per tonne of potatoes,\nat subsequent doses of 30 grams of mint oil per tonne of potatoes every three weeks; • C: or with clove oil alone\nat an initial dose of 90 grams of clove oil per tonne of potatoes,\nat subsequent doses of 30 grams of clove oil per tonne of potatoes every three weeks; • D: or with CIPC (Xedamate Aerosol 88 containing 20% CIPC) by thermal fogging:\nat an initial dose of 60 grams of Xedamate Aerosol 88 per tonne of potatoes, […]"}
{"substance": "L-carvone", "values": [{"measurement": "Anti-sprouting activity relative to reference product CIPC", "result": "comparable with the reference product (CIPC)"}]}
